Test results taken from patent US20230139171A1 (SITA Information Networking Computing UK Limited, priority 2019, published 2023).

Key:
Type in all cases: cell-based
human TLR9 = biological target: T1, human TLR9 (Homo sapiens, UniProt Q9NR96); assay: TLR9 inhibition reporter assay (HEK-Blue cells, SEAP reporter, ODN2006 stimulation); settings: HEK-Blue cells overexpressing human TLR9, SEAP reporter, ODN2006 5 nM
T1 construct: host or cells: HEK-Blue cells
T1 sequence (Q9NR96 26-1032): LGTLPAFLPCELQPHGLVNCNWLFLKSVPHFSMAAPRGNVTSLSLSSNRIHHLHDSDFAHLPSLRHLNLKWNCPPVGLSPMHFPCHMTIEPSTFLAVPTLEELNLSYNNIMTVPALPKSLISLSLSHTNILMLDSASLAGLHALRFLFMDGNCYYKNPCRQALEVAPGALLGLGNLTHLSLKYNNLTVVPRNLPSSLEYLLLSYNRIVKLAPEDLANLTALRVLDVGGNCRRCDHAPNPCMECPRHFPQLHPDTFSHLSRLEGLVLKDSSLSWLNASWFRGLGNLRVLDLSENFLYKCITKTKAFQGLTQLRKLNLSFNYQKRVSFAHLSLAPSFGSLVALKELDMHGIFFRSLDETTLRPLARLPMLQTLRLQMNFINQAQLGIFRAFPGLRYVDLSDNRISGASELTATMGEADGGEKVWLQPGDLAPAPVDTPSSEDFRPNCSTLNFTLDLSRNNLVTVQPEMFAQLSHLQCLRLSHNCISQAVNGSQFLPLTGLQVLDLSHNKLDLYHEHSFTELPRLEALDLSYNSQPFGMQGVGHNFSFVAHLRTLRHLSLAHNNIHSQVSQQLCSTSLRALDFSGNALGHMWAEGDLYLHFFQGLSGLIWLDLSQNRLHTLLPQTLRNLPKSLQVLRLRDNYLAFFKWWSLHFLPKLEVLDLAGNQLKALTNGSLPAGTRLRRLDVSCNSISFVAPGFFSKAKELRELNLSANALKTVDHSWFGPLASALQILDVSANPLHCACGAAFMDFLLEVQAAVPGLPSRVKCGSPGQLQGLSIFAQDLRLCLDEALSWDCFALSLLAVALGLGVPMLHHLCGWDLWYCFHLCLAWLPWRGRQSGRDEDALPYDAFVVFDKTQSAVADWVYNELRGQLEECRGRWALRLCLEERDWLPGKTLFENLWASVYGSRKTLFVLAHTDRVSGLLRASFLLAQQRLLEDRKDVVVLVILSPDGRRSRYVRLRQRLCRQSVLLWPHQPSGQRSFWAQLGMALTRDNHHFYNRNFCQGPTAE
Summary of the method: (§1)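 Dose–response from 0.05 nM to 50 μM was run in HEK-Blue human TLR7, TLR8 and TLR9 reporter cells. After 30 min at room temperature with compound, ligand was added (TLR7 gardiquimod 7.5 μM; TLR8 R848 15.9 μM; TLR9 ODN2006 5 nM) and SEAP measured next day, at 22 h.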

human TLR7 = biological target: T2, human TLR7 (Homo sapiens, UniProt Q9NYK1); assay: TLR7 inhibition reporter assay (HEK-Blue cells, SEAP reporter, gardiquimod stimulation); settings: HEK-Blue cells overexpressing human TLR7, SEAP reporter, gardiquimod 7.5 μM; read-out: TLR7 IC50
T2 construct: host or cells: HEK-Blue cells
T2 sequence (Q9NYK1 27-1049): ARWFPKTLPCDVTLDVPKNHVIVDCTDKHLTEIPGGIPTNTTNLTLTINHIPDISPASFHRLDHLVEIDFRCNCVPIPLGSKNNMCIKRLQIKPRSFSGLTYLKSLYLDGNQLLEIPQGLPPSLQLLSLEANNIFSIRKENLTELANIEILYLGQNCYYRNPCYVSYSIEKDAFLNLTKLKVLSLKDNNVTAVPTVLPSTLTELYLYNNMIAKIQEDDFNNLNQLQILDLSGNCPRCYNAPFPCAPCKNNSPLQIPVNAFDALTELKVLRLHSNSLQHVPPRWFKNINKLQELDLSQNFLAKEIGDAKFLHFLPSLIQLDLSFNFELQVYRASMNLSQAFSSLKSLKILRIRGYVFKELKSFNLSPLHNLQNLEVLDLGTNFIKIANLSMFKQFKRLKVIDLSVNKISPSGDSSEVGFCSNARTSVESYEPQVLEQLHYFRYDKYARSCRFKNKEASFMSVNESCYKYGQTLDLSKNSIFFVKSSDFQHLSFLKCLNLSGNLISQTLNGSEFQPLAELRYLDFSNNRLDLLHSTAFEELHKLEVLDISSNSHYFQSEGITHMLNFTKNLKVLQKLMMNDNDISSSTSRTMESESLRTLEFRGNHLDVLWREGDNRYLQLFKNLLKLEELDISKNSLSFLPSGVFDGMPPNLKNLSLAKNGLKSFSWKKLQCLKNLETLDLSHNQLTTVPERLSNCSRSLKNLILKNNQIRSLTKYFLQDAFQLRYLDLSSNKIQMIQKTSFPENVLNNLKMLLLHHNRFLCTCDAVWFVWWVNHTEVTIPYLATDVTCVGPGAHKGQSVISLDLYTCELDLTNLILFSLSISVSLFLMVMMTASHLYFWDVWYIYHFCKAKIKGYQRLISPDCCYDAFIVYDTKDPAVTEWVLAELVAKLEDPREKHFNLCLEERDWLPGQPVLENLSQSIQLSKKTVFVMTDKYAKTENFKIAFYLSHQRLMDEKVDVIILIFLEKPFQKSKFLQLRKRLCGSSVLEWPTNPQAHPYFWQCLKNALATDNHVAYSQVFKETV
Summary of the method: as §1

human TLR8 = biological target: T3, human TLR8 (Homo sapiens, UniProt Q9NR97); assay: TLR8 inhibition reporter assay (HEK-Blue cells, SEAP reporter, R848 stimulation); settings: HEK-Blue cells overexpressing human TLR8, SEAP reporter, R848 15.9 μM; read-out: TLR8 IC50
T3 construct: host or cells: HEK-Blue cells
T3 sequence (Q9NR97 27-1041): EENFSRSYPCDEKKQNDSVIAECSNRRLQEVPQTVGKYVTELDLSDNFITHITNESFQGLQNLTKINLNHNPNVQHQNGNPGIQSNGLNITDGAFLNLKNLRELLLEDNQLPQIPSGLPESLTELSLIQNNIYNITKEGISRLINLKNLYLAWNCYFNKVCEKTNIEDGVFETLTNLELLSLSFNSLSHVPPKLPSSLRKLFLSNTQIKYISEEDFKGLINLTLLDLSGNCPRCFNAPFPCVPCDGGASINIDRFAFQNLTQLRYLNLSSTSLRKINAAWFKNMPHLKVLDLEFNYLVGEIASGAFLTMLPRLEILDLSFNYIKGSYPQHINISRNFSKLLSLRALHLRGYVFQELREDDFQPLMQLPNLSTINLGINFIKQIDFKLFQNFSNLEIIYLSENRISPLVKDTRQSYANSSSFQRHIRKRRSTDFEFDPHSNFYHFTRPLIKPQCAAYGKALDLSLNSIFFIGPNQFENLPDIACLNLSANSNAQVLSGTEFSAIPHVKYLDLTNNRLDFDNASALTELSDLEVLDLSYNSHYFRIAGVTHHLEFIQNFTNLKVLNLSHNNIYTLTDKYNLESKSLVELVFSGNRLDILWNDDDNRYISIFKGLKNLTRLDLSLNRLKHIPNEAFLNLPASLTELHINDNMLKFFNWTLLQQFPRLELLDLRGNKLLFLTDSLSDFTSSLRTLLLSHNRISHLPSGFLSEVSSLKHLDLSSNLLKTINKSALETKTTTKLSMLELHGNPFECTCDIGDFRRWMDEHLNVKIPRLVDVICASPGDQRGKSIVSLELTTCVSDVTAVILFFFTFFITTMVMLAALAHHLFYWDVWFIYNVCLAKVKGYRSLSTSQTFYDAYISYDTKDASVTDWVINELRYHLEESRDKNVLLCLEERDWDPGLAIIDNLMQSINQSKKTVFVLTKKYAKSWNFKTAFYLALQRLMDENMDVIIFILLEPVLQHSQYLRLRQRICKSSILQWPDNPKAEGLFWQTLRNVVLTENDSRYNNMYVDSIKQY
Summary of the method: as §1

Row | Compound | IC50 (human TLR9) | IC50 (human TLR7) | IC50 (human TLR8)
1 | COc1cc(-c2[nH]c3sc(C(=O)NCC(F)F)nc3c2C(C)C)cn2ncnc12 [Example 389, N-(2,2-difluoroethyl)-6-isopropyl-5-(8-methoxy-[1,2,4]triazolo[1,5-a]pyridin-6-yl)-4H-pyrrolo[3,2-d]thiazole-2-carboxamide] | 37100 nM | 50.3 nM | 168 nM
2 | Cc1cc(-c2[nH]c3sc(C(=O)N4CCC(N(C)C)CC4)nc3c2C(C)C)cn2ncnc12 [Example 395, (4-(dimethylamino)piperidin-1-yl)(6-isopropyl-5-(8-methyl-[1,2,4]triazolo[1,5-a]pyridin-6-yl)-4H-pyrrolo[3,2-d]thiazol-2-yl)methanone] | 4500 nM | 7.89 nM | 6.75 nM
3 | COc1cc(-c2[nH]c3nc(C4CCNCC4)sc3c2C(C)C)cn2ncnc12 [Example 410, 6-isopropyl-5-(8-methoxy-[1,2, 4]triazolo[1,5-a]pyridin-6-yl)-2-(piperidin-4-yl)-4H-pyrrolo[2,3-d]thiazole] | 6800 nM | 130 nM | 560 nM
4 | Cc1cc(-c2[nH]c3nc(C4CCNCC4)sc3c2C(C)C)cn2ncnc12 [Example 411, 6-isopropyl-5-(8-methyl-[1,2,4]triazolo[1,5-a]pyridin-6-yl)-2-(piperidin-4-yl)-4H-pyrrolo[2,3-d]thiazole] | 3100 nM | 1.8 nM | 200 nM
5 | Cc1cc(-c2[nH]c3nc(C4CCN(CC5(C)COC5)CC4)sc3c2C(C)C)cn2ncnc12 [Example 412, 6-isopropyl-5-(8-methyl-[1,2,4]triazolo[1,5-a]pyridin-6-yl)-2-(1-((3-methyloxetan-3-yl)methyl)piperidin-4-yl)-4H-pyrrolo[2,3-d]thiazole] | 5000 nM | 50 nM | 520 nM
6 | COc1cc(-c2[nH]c3cc(C4CCNCC4)sc3c2C(C)C)cn2ncnc12 [Example 413, 6-isopropyl-5-(8-methoxy-[1,2,4]triazolo[1,5-a]pyridin-6-yl)-2-(piperidin-4-yl)-4H-thieno[3,2-b]pyrrole] | 3100 nM | 5.3 nM | 9.3 nM

Second part, the compound after the results:

Row | IC50 (human TLR9) | IC50 (human TLR7) | IC50 (human TLR8) | Compound
7 | 16100 nM | 22.4 nM | 37.4 nM | COc1cc(-c2[nH]c3sc(C(=O)NCCN(C)C)nc3c2C(C)C)cn2ncnc12 [Example 388, N-(2-(dimethylamino)ethyl)-6-isopropyl-5-(8-methoxy-[1,2,4]triazolo[1,5-a]pyridin-6-yl)-4H-pyrrolo[3,2-d]thiazole-2-carboxamide]
8 | 9250 nM | 13.5 nM | 15.9 nM | Cc1cc(-c2[nH]c3sc(C(=O)NCCN(C)C)nc3c2C(C)C)cn2ncnc12 [Example 400, N-(2-(dimethylamino)ethyl)-6-isopropyl-5-(8-methyl-[1,2,4]triazolo[1,5-a]pyridin-6-yl)-4H-pyrrolo[3,2-d]thiazole-2-carboxamide]
9 | 13500 nM | 36.9 nM | 35.7 nM | Cc1c(-c2[nH]c3sc(CNC4CCN(C(C)C)CC4)nc3c2C(C)C)cn2ncnc2c1C [Example 401, N-((5-(7,8-dimethyl-[1,2,4]triazolo[1,5-a]pyridin-6-yl)-6-isopropyl-4H-pyrrolo[3,2-d]thiazol-2-yl)methyl)-1-isopropylpiperidin-4-amine]
10 | 37700 nM | 77.5 nM | 215 nM | Cc1c(-c2[nH]c3sc(CNCC4(S(C)(=O)=O)CC4)nc3c2C(C)C)cn2ncnc2c1C [Example 405, 1-(5-(7,8-dimethyl-[1,2,4]triazolo[1,5-a]pyridin-6-yl)-6-isopropyl-4H-pyrrolo[3,2-d]thiazol-2-yl)-N-((1-(methylsulfonyl)cyclopropyl)methyl)methanamine]
11 | 9800 nM | 48.2 nM | 345 nM | Cc1c(-c2[nH]c3sc(CN4CC5(CNC5)C4)nc3c2C(C)C)cn2ncnc2c1C [Example 409, 2-((2,6-diazaspiro[3.3]heptan-2-yl)methyl)-5-(7,8-dimethyl-[1,2,4]triazolo[1,5-a]pyridin-6-yl)-6-isopropyl-4H-pyrrolo[3,2-d]thiazole]
